For 22 compounds, Cytotoxicity and CC50 results are on record in publication PMC1500806, “Carrageenan Is a Potent Inhibitor of Papillomavirus Infection” (PLoS Pathogens, 2006).

In general, CC50 refers to the concentration at which the toxic effect on the cells reaches its halfway point. Higher therefore signals lower toxicity to the cells.

≈ marks a conversion by molar mass, not a printed value. Positions of bridges follow the written chain, without caps; N, C: chain ends. Non-standard residues stand in square brackets, D forms with d. Residues, ends and D or L forms follow the SMILES beside them. *: point of attachment. Ileψ(thiazoline)Cys = CC[C@H](C)[C@H](N)C1=N[C@H](C(=O)*)CS1; dOrn = NCCC[C@@H](N)C(=O)O Bounds are passed on as bounds.

The first data set concerns HeLa cells. As to the kind of experiment: Cytotoxicity (WST-1 turnover and/or cell morphology). The format is cell-based.
Conditions: not given
The method, then: (§1) Compounds were tested using a previously described PsV-based papillomavirus inhibition assay. Briefly, HeLa cells were plated at 6,000 cells/well in 50 μl of medium in 96-well plates. Candidate inhibitors were dissolved at 1–10 mg/ml (or reconstituted as directed by manufacturer) in sterile water or appropriate solvent, then subjected to a ten-point three-fold serial dilution covering an appropriate concentration range. Diluted candidate inhibitor (50 μl) was added to preplated HeLa cells, followed by 50 μl of diluted PsV stock. The cells were incubated for 24 h, fed by addition of 100 μl of DMEM-10, then subjected to flow cytometric analysis 48–56 h after infection. IC50 values and 95% CI were determined using Prism (GraphPad Software, San Diego, California, United States) to calculate a variable slope sigmoidal dose-response curve.
(§2) Cytotoxicity was defined as a >50% reduction in the net turnover of the metabolic substrate WST-1 (Roche, Indianapolis, Indiana, United States) and/or by the appearance of dramatic alterations in the microscopic appearance of cell morphology at the time of harvest.
(Formazan colour is commonly taken as a measure of viable cells.)
`CCCCCCCCCCCCOS(=O)(=O)[O-].[Na+]` [Sodium dodecyl sulfate] gave a Cytotoxicity of 333 µg/mL.

`O[C@@H](CS)[C@@H](O)CS` [Dithiothreotol] registered a Cytotoxicity greater than 100 µg/mL.

`C[C@@H]1[C@H](O)[C@@H](C)/C=C/C=C/CC/C=C/C=C/C=C/C=C/C(O[C@H]2O[C@H](C)[C@@H](O)[C@H](N)[C@@H]2O)CC2O[C@](O)(CC(O)C(O)CCC(O)CC(O)CC(O)CC(=O)O[C@H]1C)CC(O)C2C(=O)O` (stereo partly shown) [Nystatin] returned a Cytotoxicity of 100 µg/mL.

With `Cl.N=C(N)N` [Guanidine hydrochloride], the Cytotoxicity was greater than 475 µg/mL.

Compound `OCCS` [2-Mercaptoethanol] showed a Cytotoxicity greater than 100 µg/mL.

`O=C(O)c1cc(SSc2ccc([N+](=O)[O-])c(C(=O)O)c2)ccc1[N+](=O)[O-]` [Ellman's reagent]: the Cytotoxicity is listed as 1,300 μg/ml.

Still in this data set, the particulars now being: >50% reduction in WST-1 turnover and/or altered cell morphology.
As to Gelatin, the Cytotoxicity is greater than 100 µg/mL.

The compound “Gramicidins A-D [Gramicidins A-D (B. Brevis)]” displayed a Cytotoxicity of 1.2 µg/mL.

`O=[N+]([O-])c1ccc(Cl)c([N+](=O)[O-])c1` [1-Chloro-2,4-dinitrobenzene (DNCB), 1-Chloro-2,4-dinitrobenzene] came in with a Cytotoxicity of 7 µg/mL.

The compound Poly-(arginine-aminocaproyl) showed a Cytotoxicity greater than 100 µg/mL.

The same data set, now with this note: human.
In turn, `CCCCS(=N)(=O)CCC(N)C(=O)O` (stereo not shown) [Buthionine sulfoximine (BSO), Buthionine sulfoximine] yielded a Cytotoxicity greater than 7 µg/mL.

System in another data set: not listed separately
The data set is described as above. It is filed as cell-based. The settings on record: human, HeLa cells; >50% reduction in WST-1 turnover and/or altered cell morphology. The method, then:
as §1, §2
`CC[C@H](C)[C@H](NC(=O)[C@H](CCCCN)NC(=O)[C@H](CCCCN)NC(=O)[C@H](Cc1ccccc1)NC(=O)[C@H](CC(C)C)NC(=O)[C@H](CCCCN)NC(=O)[C@H](Cc1c[nH]c2ccccc12)NC(=O)[C@@H](N)CCCCN)C(=O)NCC(=O)N[C@@H](C)C(=O)N[C@H](C(=O)N[C@@H](CC(C)C)C(=O)N[C@@H](CCCCN)C(=O)N[C@H](C(=O)N[C@@H](CC(C)C)C(N)=O)C(C)C)C(C)C` [Cecropin A-Mellitin hybrid] (H-KWKLFKKIGAVLKVL-NH2; N-terminus and C-terminus assumed) gave a cytotoxic concentration (CC50) of 11 µg/mL (≈ 6.21 µM).

Turning to `CC(C)C[C@H](NC(=O)[C@H](C)NC(=O)[C@H](CCCCN)NC(=O)[C@H](CCCCN)NC(=O)[C@H](CC(C)C)NC(=O)[C@H](C)NC(=O)[C@H](CCCCN)NC(=O)[C@H](CCCCN)NC(=O)[C@H](CC(C)C)NC(=O)[C@H](CCCCN)NC(=O)[C@H](CCCCN)NC(=O)[C@H](CC(C)C)NC(=O)[C@H](C)NC(=O)[C@H](CCCCN)NC(=O)[C@H](CCCCN)NC(=O)[C@H](CC(C)C)NC(=O)[C@H](C)NC(=O)[C@H](CCCCN)NC(=O)[C@H](CC(C)C)NC(=O)[C@H](C)NC(=O)[C@H](CC(C)C)NC(=O)[C@H](C)NC(=O)[C@@H](N)Cc1ccccc1)C(=O)O` [Hecate] (H-FALALKALKKALKKLKKALKKAL-OH; N-terminus and C-terminus assumed), the CC50 is 17 µg/mL (≈ 6.7 µM).

In the case of `CC(C)[C@H](NC(=O)[C@H](CCCCN)NC(=O)CNC(=O)CNC(=O)[C@H](CCC(N)=O)NC(=O)[C@H](CCCCN)NC(=O)CNC(=O)[C@H](CCCNC(=N)N)NC(=O)CNC(=O)[C@@H](N)CCCCN)C(=O)N[C@@H](CCCNC(=N)N)C(=O)N[C@@H](C)C(=O)N[C@@H](CCCCN)C(=O)N[C@@H](C)C(=O)N[C@@H](CCCCN)C(=O)N[C@H](C(=O)N[C@@H](CCCNC(=N)N)C(=O)N[C@@H](CO)C(=O)N[C@@H](CO)C(=O)O)[C@@H](C)O` [Parasin-I] (H-KGRGKQGGKVRAKAKTRSS-OH), the CC50 was greater than 100 µg/mL.

`CC[C@H](C)[C@H](N)C1=N[C@H](C(=O)N[C@@H](CC(C)C)C(=O)N[C@H](CCC(=O)O)C(=O)N[C@H](C(=O)N[C@H]2CCCCNC(=O)[C@H](CC(N)=O)NC(=O)[C@@H](CC(=O)O)NC(=O)[C@H](Cc3cnc[nH]3)NC(=O)[C@@H](Cc3ccccc3)NC(=O)[C@H]([C@@H](C)CC)NC(=O)[C@@H](CCCN)NC2=O)[C@@H](C)CC)CS1` [Bacitracin] ({Ileψ(thiazoline)Cys}-L[dE]IK[dOrn]I[dF]H[dD]N; lactam 4-C (inferred)) had a CC50 greater than 420 µg/mL.

Compound `CC[C@H](C)[C@H](NC(=O)CN)C(=O)NCC(=O)N[C@@H](CCCCN)C(=O)N[C@@H](Cc1ccccc1)C(=O)N[C@@H](CC(C)C)C(=O)N[C@@H](Cc1c[nH]cn1)C(=O)N[C@@H](CO)C(=O)N[C@@H](C)C(=O)NCC(=O)N[C@@H](CCCCN)C(=O)N[C@@H](Cc1ccccc1)C(=O)NCC(=O)N[C@@H](CCCCN)C(=O)N[C@@H](C)C(=O)N[C@@H](Cc1ccccc1)C(=O)N[C@H](C(=O)NCC(=O)N[C@@H](CCC(=O)O)C(=O)N[C@H](C(=O)N[C@@H](CCSC)C(=O)N[C@@H](CCCCN)C(=O)N[C@@H](CO)C(=O)O)[C@@H](C)CC)C(C)C` [Magainin-I] (H-GIGKFLHSAGKFGKAFVGEIMKS-OH) showed a cytotoxic concentration (CC50) greater than 100 µg/mL.

Compound `CC[C@H](C)[C@@H]1NC(=O)CNC(=O)[C@H](CCCNC(=N)N)NC(=O)[C@H](Cc2ccc(O)cc2)NC(=O)[C@@H]2CSSC[C@H](NC1=O)C(=O)N[C@@H](Cc1ccc(O)cc1)C(=O)N[C@@H](CCCNC(=N)N)C(=O)N[C@@H](CCCNC(=N)N)C(=O)N[C@H](C(=O)N[C@@H](CCCNC(=N)N)C(N)=O)CSSC[C@H](NC(=O)[C@H](Cc1c[nH]c3ccccc13)NC(=O)[C@@H](N)CCCCN)C(=O)N[C@@H](Cc1ccccc1)C(=O)N[C@@H](CCCNC(=N)N)C(=O)N[C@@H](C(C)C)C(=O)N2` [Tachyplesin-I] (H-KWCFRVCYRGICYRRCR-NH2; disulfide 3-16, 7-12) returned a cytotoxic concentration (CC50) of 100 µg/mL (≈ 44.2 µM).

As to `CSCC[C@H](NC(=O)[C@H](CCCNC(=N)N)NC(=O)[C@H](Cc1c[nH]c2ccccc12)NC(=O)[C@H](CCC(N)=O)NC(=O)[C@H](Cc1c[nH]c2ccccc12)NC(=O)[C@H](CCCNC(=N)N)NC(=O)[C@@H](N)CCCNC(=N)N)C(=O)N[C@@H](CCCCN)C(=O)N[C@@H](CCCCN)C(=O)N[C@@H](CC(C)C)C(=O)NCC(=O)O` [Lactoferricin B 4–14 fragment] (H-RRWQWRMKKLG-OH; N-terminus and C-terminus assumed), the cytotoxic concentration (CC50) is greater than 15 µg/mL.

For the compound `CC[C@H](C)[C@H](NC(=O)CNC(=O)[C@H](CC(=O)O)NC(=O)[C@H](CCCNC(=N)N)NC(=O)[C@@H](NC(=O)[C@H](CC(N)=O)NC(=O)[C@H](CCC(N)=O)NC(=O)CNC(=O)[C@@H](NC(=O)[C@H](CCCCN)NC(=O)[C@H](CCC(=O)O)NC(=O)[C@@H](NC(=O)[C@H](CCCCN)NC(=O)[C@H](CCCCN)NC(=O)[C@H](Cc1ccccc1)NC(=O)[C@H](CC(C)C)NC(=O)[C@H](CCCCN)NC(=O)[C@H](Cc1c[nH]c2ccccc12)NC(=O)[C@@H](N)CCCCN)[C@@H](C)CC)C(C)C)[C@@H](C)CC)C(=O)N[C@H](C(=O)N[C@@H](CCCCN)C(=O)N[C@@H](C)C(=O)NCC(=O)N1CCC[C@H]1C(=O)N[C@@H](C)C(=O)N[C@H](C(=O)N[C@@H](C)C(=O)N[C@H](C(=O)N[C@H](C(=O)NCC(=O)N[C@@H](CCC(N)=O)C(=O)N[C@@H](C)C(=O)N[C@H](C(=O)N[C@@H](CCC(N)=O)C(=O)N[C@H](C(=O)N[C@@H](C)C(=O)N[C@@H](CCCCN)C(N)=O)[C@@H](C)CC)[C@@H](C)O)C(C)C)C(C)C)C(C)C)[C@@H](C)CC` [Cecropin A (porcine)] (H-KWKLFKKIEKVGQNIRDGIIKAGPAVAVVGQATQIAK-NH2; N-terminus and C-terminus assumed), the CC50 is greater than 100 µg/mL.

Compound `CC[C@H](C)[C@H](NC(=O)CN)C(=O)NCC(=O)N[C@@H](C)C(=O)N[C@H](C(=O)N[C@@H](CC(C)C)C(=O)N[C@@H](CCCCN)C(=O)N[C@H](C(=O)N[C@@H](CC(C)C)C(=O)N[C@H](C(=O)N[C@H](C(=O)NCC(=O)N[C@@H](CC(C)C)C(=O)N1CCC[C@H]1C(=O)N[C@@H](C)C(=O)N[C@@H](CC(C)C)C(=O)N[C@H](C(=O)N[C@@H](CO)C(=O)N[C@@H](Cc1c[nH]c2ccccc12)C(=O)N[C@H](C(=O)N[C@@H](CCCCN)C(=O)N[C@@H](CCCNC(=N)N)C(=O)N[C@@H](CCCCN)C(=O)N[C@@H](CCCNC(=N)N)C(=O)N[C@@H](CCC(N)=O)C(=O)N[C@@H](CCC(N)=O)C(N)=O)[C@@H](C)CC)[C@@H](C)CC)[C@@H](C)O)[C@@H](C)O)C(C)C)C(C)C` [Melittin] displayed a cytotoxic concentration (CC50) of 4 µg/mL (≈ 1.41 µM).

`N=C(N)NCCC[C@H](NC(=O)[C@H](CCCNC(=N)N)NC(=O)[C@H](CCCNC(=N)N)NC(=O)[C@H](CCCNC(=N)N)NC(=O)[C@H](CCCNC(=N)N)NC(=O)[C@H](CCCNC(=N)N)NC(=O)[C@@H](N)CCCNC(=N)N)C(=O)O` [Poly-arginine7]: the CC50 is greater than 100 µg/mL.

For the compound `C[C@@H](O)[C@H](N)C(=O)N[C@@H](CCCCN)C(=O)N1CCC[C@H]1C(=O)N[C@@H](CCCNC(=N)N)C(=O)O` [Tuftsin] (H-TKPR-OH; N-terminus and C-terminus assumed), the CC50 is greater than 100 µg/mL.
